In US8663669B2, “Pesticide treatment of soils or substrates with sulphur compounds” (Arkema France, priority 2002, dated 2014):

Columns and labels:
[1] = tested on: eggs of nematodes (Meloidogyne arenaria); experiment: Ovicidal activity on the eggs of nematodes (number of hatchings); assay type: in vivo
Procedure: The breeding of the nematodes was carried out on tomato plants. The tests were carried out with, aqueous solutions of DMDS at 0.0001%, 0.1%, 1% and 5% by mass, of DPDS at 1%, 5% and 10% by mass, and of allicin at 0.0003%, 0.0015% and 0.003% by mass, compared with a control consisting of pure water, and repeated five times. The ovicidal activity was also evaluated according to the same modalities, by counting the number of hatchings after 5 to 20 days following exposure to the products.

[2] = Diffusion of DMDS into the soil (column of earth, gas chromatography); assay type: physicochemical
Procedure: The rate of diffusion of DMDS was studied by filling a sealed thermal glass chamber of 3.3 litres and 40 cm in height with 2.5 litres of earth (that is 33 cm) obtained from the Garonne valley (sandy-muddy soil containing 1.6% of organic matter); the DMDS was deposited at the surface of the earth in 2 doses: 300 and 800 kg/ha, that is, considering a disinfection over 30 cm, doses of 100 and 266.6 g/m^3 of soil. There are then measured by gas chromatography, as a function of time (in hours), the concentrations of DMDS in gaseous form (in g/m^3) in the top free volume of the chamber (point A) and at 11 cm (point B), 22 cm (point C) and 33 cm (point D) below the level of the earth by means of 3 openings equipped with sealed septums on the side of the chamber; the variation in the concentration as a function of time for the 4 measurement points is thus obtained, as shown in Table 2 in the case of the 800 kg/ha dose.
The product CT of the concentrations C by the time of measurement T is another essential data which indicates the cumulative doses of DMDS to which are subjected the pathogenic organisms which may be present at the different measurement points. The CT values in gh/m^3 indicated in Table 3 are thus found for the two concentrations tested.

[3] = tested on: termite (Reticulitermes santonensis); experiment: Insecticidal in vitro fumigation test on termites; assay type: in vivo; conditions: 24 hours of fumigation, mortality counted at the end of 48 hours; 25° C.
Procedure: Dead wood infested with termites was collected from the soil on ground occupied by a colony. This dead wood serves as breeding medium. The breeding is maintained at a constant 25° C. and a day/night 12:12 alternation.
The insects are removed in an amount of 2 soldiers per 28 workers.
The tests are carried out in hermetically closed glass jars having a volume of 3 L and containing the insects.
The product to be tested is introduced through a hole 2 mm in diameter with the aid of a micropipette and deposited on a filter paper (2×5 cm: Whatman No. 1) suspended at the centre of the jar where it migrates by capillarity and vaporizes rapidly. The hole is hermetically closed again as quickly as possible.
The jars are placed for 24 hours in an incubator under the same breeding conditions.
At the end of 24 hours, after a few instants of aeration, a first count is made and then the insects are placed again under breeding conditions for another 24 hours. The counting of the mortality is therefore carried out at the end of 48 hours. […] Each test is carried out on a population of 30 to 50 insects and is accompanied by a control without treatment. Several repeats are carried out with doses close to the LC50.

Compound: CSSC [DMDS, dimethyl disulphide]
- Ovicidal activity ([1]; 1-10 % by mass): very high ovicidal activity
- Number of hatchings (cumulative) ([1]; concentration by mass 1 %, D5, control 141): 7
- Number of hatchings (cumulative) ([1]; concentration by mass 1 %, D10, control 179): 7
- Number of hatchings (cumulative) ([1]; concentration by mass 1 %, D13, control 184): 7
- Number of hatchings (cumulative) ([1]; concentration by mass 1 %, D17, control 184): 7
- Number of hatchings (cumulative) ([1]; concentration by mass 5 %, D5, control 141): 2
- Number of hatchings (cumulative) ([1]; concentration by mass 5 %, D10, control 179): 2
- Number of hatchings (cumulative) ([1]; concentration by mass 5 %, D13, control 184): 5
- Number of hatchings (cumulative) ([1]; concentration by mass 5 %, D17, control 184): 5
- Number of hatchings (cumulative) ([1]; concentration by mass 10 %, D5, control 141): 0
- Number of hatchings (cumulative) ([1]; concentration by mass 10 %, D10, control 179): 2
- Number of hatchings (cumulative) ([1]; concentration by mass 10 %, D13, control 184): 5
- Number of hatchings (cumulative) ([1]; concentration by mass 10 %, D17, control 184): 5
- Reduction in the number of hatchings ([1]; on the last day of observation): approximately 97%
- CT (product of concentrations C by time T) ([2]; 300 kg/ha, A (0 cm)): 3187 gh/m^3
- CT (product of concentrations C by time T) ([2]; 300 kg/ha, B (−11 cm)): 2737 gh/m^3
- CT (product of concentrations C by time T) ([2]; 300 kg/ha, C (−22 cm)): 2753 gh/m^3
- CT (product of concentrations C by time T) ([2]; 300 kg/ha, D (−33 cm)): 2210 gh/m^3
- DMDS concentration in gaseous form ([2]; 800 kg/ha dose, 0 h, A (0 cm)): 0 g/m^3
- DMDS concentration in gaseous form ([2]; 800 kg/ha dose, 0 h, B (−11 cm)): 0 g/m^3
- DMDS concentration in gaseous form ([2]; 800 kg/ha dose, 0 h, C (−22 cm)): 0 g/m^3
- DMDS concentration in gaseous form ([2]; 800 kg/ha dose, 0 h, D (−33 cm)): 0 g/m^3
- Time for the DMDS concentration to be homogeneous in the entire thickness of the column of earth ([2]; 800 kg/ha dose, 33 cm of earth): approximately 24 hours
- DMDS concentration in gaseous form ([2]; 800 kg/ha dose, 1 h, A (0 cm)): 144.9 g/m^3
- DMDS concentration in gaseous form ([2]; 800 kg/ha dose, 1 h, B (−11 cm)): 76.6 g/m^3
- DMDS concentration in gaseous form ([2]; 800 kg/ha dose, 1 h, C (−22 cm)): 3 g/m^3
- DMDS concentration in gaseous form ([2]; 800 kg/ha dose, 1 h, D (−33 cm)): 0 g/m^3
- DMDS concentration in gaseous form ([2]; 800 kg/ha dose, 3 h, A (0 cm)): 152.7 g/m^3
- DMDS concentration in gaseous form ([2]; 800 kg/ha dose, 3 h, B (−11 cm)): 73.9 g/m^3
- DMDS concentration in gaseous form ([2]; 800 kg/ha dose, 3 h, C (−22 cm)): 5.1 g/m^3
- DMDS concentration in gaseous form ([2]; 800 kg/ha dose, 3 h, D (−33 cm)): 0.3 g/m^3
- DMDS concentration in gaseous form ([2]; 800 kg/ha dose, 5 h, A (0 cm)): 96.3 g/m^3
- DMDS concentration in gaseous form ([2]; 800 kg/ha dose, 5 h, B (−11 cm)): 63.8 g/m^3
- DMDS concentration in gaseous form ([2]; 800 kg/ha dose, 5 h, C (−22 cm)): 48.4 g/m^3
- DMDS concentration in gaseous form ([2]; 800 kg/ha dose, 5 h, D (−33 cm)): 21.5 g/m^3
- DMDS concentration in gaseous form ([2]; 800 kg/ha dose, 5.5 h, A (0 cm)): 123.7 g/m^3
- DMDS concentration in gaseous form ([2]; 800 kg/ha dose, 5.5 h, B (−11 cm)): 91.4 g/m^3
- DMDS concentration in gaseous form ([2]; 800 kg/ha dose, 5.5 h, C (−22 cm)): 58.3 g/m^3
- DMDS concentration in gaseous form ([2]; 800 kg/ha dose, 5.5 h, D (−33 cm)): 29.4 g/m^3
- DMDS concentration in gaseous form ([2]; 800 kg/ha dose, 24 h, A (0 cm)): 32.7 g/m^3
- DMDS concentration in gaseous form ([2]; 800 kg/ha dose, 24 h, B (−11 cm)): 30.2 g/m^3
- DMDS concentration in gaseous form ([2]; 800 kg/ha dose, 24 h, C (−22 cm)): 40.1 g/m^3
- DMDS concentration in gaseous form ([2]; 800 kg/ha dose, 24 h, D (−33 cm)): 34.4 g/m^3
- DMDS concentration in gaseous form ([2]; 800 kg/ha dose, 96 h, A (0 cm)): 11.8 g/m^3
- DMDS concentration in gaseous form ([2]; 800 kg/ha dose, 96 h, B (−11 cm)): 11.5 g/m^3
- DMDS concentration in gaseous form ([2]; 800 kg/ha dose, 96 h, C (−22 cm)): 12.9 g/m^3
- DMDS concentration in gaseous form ([2]; 800 kg/ha dose, 96 h, D (−33 cm)): 14.6 g/m^3
- CT (product of concentrations C by time T) ([2]; 800 kg/ha, A (0 cm)): 4145 gh/m^3
- CT (product of concentrations C by time T) ([2]; 800 kg/ha, B (−11 cm)): 3327 gh/m^3
- CT (product of concentrations C by time T) ([2]; 800 kg/ha, C (−22 cm)): 3276 gh/m^3
- CT (product of concentrations C by time T) ([2]; 800 kg/ha, D (−33 cm)): 2809 gh/m^3
- CT values, order of magnitude ([2]; dose of 300 kg/ha): ~2 500 gh/m^3
- CT values, order of magnitude ([2]; dose of 800 kg/ha): ~3 000 gh/m^3
- LC50 (Probits method) [3]: 0.095 g × 24 h/m^3
